From patent US20250270209A1 (INTERLINE THERAPEUTICS, INC., priority 2022, published 2025)

Assays:
LRRK2 wild type enzyme = LRRK2 wild type enzyme (Homo sapiens, UniProt Q5S007); assay: Biochemical Assay: LRRK2 TR-FRET (LanthaScreen) kinase assay with LRRKtide substrate; conditions: LRRK2 Inhibition, Table 8
Procedure: 10 mM compound solution was prepared in DMSO. An 11-point, 3-fold dilution was performed, with highest concentration at 10 μM. A 10 mM compound DMSO solution was added to Labcyte LDV plate and the compound concentration of source plate was 10 mM. The 1st compound concentration of Inter plate(Labcyte 384 well PP plate) was 4.938×10^−1 mM which was prepared by transferring 1.5 μL of 10 mM compound from source plate to 28.9 μL DMSO. The 2nd compound concentration of Inter plate was 1.829×10^−2 mM which was prepared by transferring 60 nL of 10 mM compound from source plate to 32.7 μL DMSO. The 3rd compound concentration of Inter plate was 6.774×10^−4 mM which was prepared by transferring 2.5 nL of 10 mM compound from source plate to 36.9 μL DMSO. 100 nL of reference compound was dispensed in column 1 for low control wells and 100 nL of DMSO in column 24 for high control wells. Compounds were dispensed to column 2 to 23 of assay plate and backfilled with DMSO to a total volume of 100 nL.
A 2X LRRK2 enzyme solution (final concentration 3 nM) was prepared in assay buffer (Tris-HCl pH8.0:50 mM, MgCl2: 5 mM, EDTA: 1 mM, Brij-35:0.01%, 2 mM DTT). A 2× substrate solution was prepared: LRRK2 tide substrate (final concentration 400 nM) and ATP (final concentration 25 μM) in assay buffer. 5 μL 2× LRRK2 enzyme solution was dispensed to each well in assay plate by Multidrop. Assay plate was spun at 1,000 rpm for 1 min and incubated for 15 min at 23° C. 5 μL 2× ATP/LRRKtide solution was dispensed to each well in assay plate by Multidrop. Assay plate was spun at 1,000 rpm for 1 min and incubated for 120 min at 23° C.
(§1) A 2× detection solution was prepared: Tb-pERM (pLRRKtide) antibody (final concentration 0.25 nM) and EDTA (final concentration 10 mM) in TR-FRET dilution buffer. 10 μL 2× detection solution was dispensed to each well in assay plate to stop kinase reaction by Multidrop. Assay plate was spun at 1,000 rpm for 1 min and incubate for 30 min at 23° C. Assay plate was then read on Envision configured for LanthaScreen® TR-FRET. pS935 LRRK2 Cell Assay

[1] = biological target: T1, wild type LRRK2 overexpressed in recombinant HEK-293T cells (Homo sapiens, UniProt Q5S007); assay: pS935 LRRK2 Cell Assay (HTRF, phospho-LRRK2 Ser935); assay type: cell-based; conditions: LRRK2 Inhibition, Table 8, 2 hours compound incubation
T1 construct: host or cells: HEK293T (transient transfection with pCMV-LRRK2 WT plasmid)
Procedure: as §1
The following protocol describes an in-vitro method for measuring phosphorylation at Ser935 on wild type LRRK2 overexpressed in recombinant HEK-293T cells. The method is based on HTRF technology, which combines Fluorescence Resonance Energy Transfer (FRET) with Time-Resolved measurement (TR). Phospho-LRRK2 (Ser935) is detected in a sandwich assay format using two different specific antibodies, one labelled with Eu3+-Cryptate (donor) and the second with d2(acceptor).When the fluorophores are in close proximity, excitation of the donor with a light source (flash lamp) stimulates FRET to the acceptor, which in turn fluoresces at a specific wavelength (665 nm). The fluorescence emission at 615 nm from the donor is also measured to allow ratiometric reduction of data. The specific signal is proportional to phospho-LRRK2 (Ser935).
Plasmid transient transfection: DMEM medium, FBS, DPBS, Trans-IT, OPTI-MEM reagents were allowed to warm to room temperature. HEK293T cells were cultured in DMEM +10% FBS complete medium in T150 flasks till around 80% confluency before transfection. Then cells were washed with 10 mL PBS and detached with 3 mL 0.25% typinsin. 30×10E6 HEK293T cells were seeded in DMEM +10% FBS complete medium to a 15 cm dish.
DNA, TransIT-LT1, OPTI-MEM complex were prepared: […] OPTI-MEM was added to a 15 mL cone tube, then […] plasmid was added to OPTI-MEM and mixed, followed by addition of 60 μL TransIT-LT1 to the plasmid OPTI-MEM mixture and mixing. The resulting mixture was incubated for 15 minutes.
The above plasmid, DNA and OPTI-MEM mixture was added dropwise to the 15 cm dish, ensuring the drops were evenly distributed. The culture dish was gently rocked back and forth and from left to right to evenly distribute the complex. The tranfected dish was incubated for 24 hours at 37° C., and 5% CO2.
Transfected HEK293T was collected in the 15 cm dish. Media was aspirated from tissue culture dish, and washed by dispensing 10 mL 1× DPBS into 15 cm dish. 1× DPBS was aspirated and 3 mL trypsin was dispensed to 15 cm dish. The dish was incubated with trypsin at room temperature for 3 min until the cells were detached. 10 mL of DMEM +10% FBS medium were added to 15 cm dish and triturated to ensure homogenous cell suspensions.
Homogenous cell suspensions were transferred to a 50 mL tube, and centrifuged for 5 minutes at 1,000 rmp/min. The supernatant was aspirated and resuspended with 20 mL complete medium. 1 mL of cell suspension was transferred for cell counting. The cell suspension was diluted to 2× 10E5 cells/ml. 50 μL cell suspensions were added to a 384-well plate. The plate was quick spun at 800 rpm for 1 minute, then incubate overnight at 37° C., 5% CO2.
Compound dispensing: compound was diluted (10 mM DMSO stock solution) and added to assay plate (top concentration: 10 μM, 3 fold serial dilution, 9 doses) with duplicates by Tecan liquid handler. The DMSO concentration of each well was normalized to 0.2%. Plates were quick spun at 1,000 rpm for 1 minute. Plates were incubated at 37° C., 5% CO2 for 2 hours.
1× lysis buffer solution supplemented with blocking reagent was prepared (e.g. 1 mL lysis buffer 4X+3 mL water+40 μL stock blocking reagent 100X). Antibodies working solution was prepared by diluting 40-fold d2 and Cryptate antibodies with detection buffer(e.g. 1520 μL detection buffer+40 μL d2-antibody stock solution+[…] Cryptate-antibody stock solution).
After 2 hours incubation, cell plates were taken out from the incubator. […]

T1 sequence (Q5S007 whole entry): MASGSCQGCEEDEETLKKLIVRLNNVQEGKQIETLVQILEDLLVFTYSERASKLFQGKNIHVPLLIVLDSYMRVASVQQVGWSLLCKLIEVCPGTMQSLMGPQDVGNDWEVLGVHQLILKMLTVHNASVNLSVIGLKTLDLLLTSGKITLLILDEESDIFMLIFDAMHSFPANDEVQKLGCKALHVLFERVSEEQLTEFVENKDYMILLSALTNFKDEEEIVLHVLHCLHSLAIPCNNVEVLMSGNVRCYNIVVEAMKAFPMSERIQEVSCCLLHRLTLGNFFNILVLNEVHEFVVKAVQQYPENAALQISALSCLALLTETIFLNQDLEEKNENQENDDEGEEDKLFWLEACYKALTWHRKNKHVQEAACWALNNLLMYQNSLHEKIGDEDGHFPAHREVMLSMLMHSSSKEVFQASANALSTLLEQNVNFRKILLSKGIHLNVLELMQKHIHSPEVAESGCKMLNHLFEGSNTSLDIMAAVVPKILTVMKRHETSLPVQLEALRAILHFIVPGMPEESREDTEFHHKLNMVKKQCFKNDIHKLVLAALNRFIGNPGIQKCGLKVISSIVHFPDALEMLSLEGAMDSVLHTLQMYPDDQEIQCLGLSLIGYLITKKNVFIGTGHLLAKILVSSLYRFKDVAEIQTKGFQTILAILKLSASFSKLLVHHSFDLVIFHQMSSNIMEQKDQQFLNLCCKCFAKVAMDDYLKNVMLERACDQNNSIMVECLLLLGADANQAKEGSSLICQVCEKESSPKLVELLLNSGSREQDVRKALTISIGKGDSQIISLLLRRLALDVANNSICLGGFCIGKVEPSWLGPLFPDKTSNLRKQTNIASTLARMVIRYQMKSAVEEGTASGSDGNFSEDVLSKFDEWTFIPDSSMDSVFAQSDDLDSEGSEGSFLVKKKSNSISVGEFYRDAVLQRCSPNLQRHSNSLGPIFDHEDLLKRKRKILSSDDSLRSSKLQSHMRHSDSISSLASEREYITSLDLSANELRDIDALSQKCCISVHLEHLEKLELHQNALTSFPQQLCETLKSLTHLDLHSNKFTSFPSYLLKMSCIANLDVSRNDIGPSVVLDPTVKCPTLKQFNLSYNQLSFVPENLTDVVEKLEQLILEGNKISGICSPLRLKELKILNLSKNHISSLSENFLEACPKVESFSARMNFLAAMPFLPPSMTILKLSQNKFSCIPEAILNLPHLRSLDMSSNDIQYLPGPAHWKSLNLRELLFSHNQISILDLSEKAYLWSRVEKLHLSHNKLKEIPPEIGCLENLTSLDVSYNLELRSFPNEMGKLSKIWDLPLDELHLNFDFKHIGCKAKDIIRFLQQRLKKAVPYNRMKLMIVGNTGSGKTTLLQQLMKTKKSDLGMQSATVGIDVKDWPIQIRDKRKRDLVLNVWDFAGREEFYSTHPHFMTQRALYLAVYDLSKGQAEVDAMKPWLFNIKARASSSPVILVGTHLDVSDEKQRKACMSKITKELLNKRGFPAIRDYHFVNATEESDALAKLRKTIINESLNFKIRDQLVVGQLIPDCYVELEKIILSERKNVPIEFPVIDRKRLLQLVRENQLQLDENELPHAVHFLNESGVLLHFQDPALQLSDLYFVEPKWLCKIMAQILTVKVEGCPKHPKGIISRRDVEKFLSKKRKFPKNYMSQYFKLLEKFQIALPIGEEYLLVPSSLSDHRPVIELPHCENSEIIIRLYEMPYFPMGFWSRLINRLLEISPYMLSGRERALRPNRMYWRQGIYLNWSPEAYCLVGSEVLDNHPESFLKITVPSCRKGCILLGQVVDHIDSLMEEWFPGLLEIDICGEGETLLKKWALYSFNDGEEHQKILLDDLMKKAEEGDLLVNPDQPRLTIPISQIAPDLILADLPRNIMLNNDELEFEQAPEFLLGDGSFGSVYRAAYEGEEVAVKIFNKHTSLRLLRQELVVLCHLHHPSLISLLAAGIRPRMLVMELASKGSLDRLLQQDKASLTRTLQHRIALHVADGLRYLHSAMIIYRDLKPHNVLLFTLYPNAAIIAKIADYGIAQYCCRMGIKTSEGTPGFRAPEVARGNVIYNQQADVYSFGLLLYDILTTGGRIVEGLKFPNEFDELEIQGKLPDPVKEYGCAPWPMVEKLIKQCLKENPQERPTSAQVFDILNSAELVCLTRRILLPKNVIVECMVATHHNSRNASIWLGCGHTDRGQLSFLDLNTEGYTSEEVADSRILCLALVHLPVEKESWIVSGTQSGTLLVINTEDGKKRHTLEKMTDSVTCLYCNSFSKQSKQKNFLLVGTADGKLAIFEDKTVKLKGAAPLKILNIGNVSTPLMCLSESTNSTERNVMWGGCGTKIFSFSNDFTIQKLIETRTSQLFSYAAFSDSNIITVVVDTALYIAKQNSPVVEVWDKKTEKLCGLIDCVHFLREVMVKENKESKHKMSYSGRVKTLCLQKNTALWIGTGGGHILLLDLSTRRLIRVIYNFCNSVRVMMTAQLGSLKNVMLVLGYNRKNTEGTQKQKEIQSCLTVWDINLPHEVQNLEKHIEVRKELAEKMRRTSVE
Chain of LRRK2 wild type enzyme (Q5S007 whole entry): as above

Row | Compound | IC50 (LRRK2 wild type enzyme) [nM] | IC50 [1] [nM]
1 | Cn1cc(-n2c(CC(=O)NCC3CC3)nc3cnc4ccc(C#N)cc4c32)ccc1=O [Compound 92, 2-[8-cyano-1-(1-methyl-6-oxo-1,6-dihydropyridin-3-yl)-1H-imidazo[4,5-c]quinolin-2-yl]-N-(cyclopropylmethyl)acetamide] | > 1000 | 
2 | C[C@@H]1C[C@H](n2c(CC(=O)Nc3cccn(C)c3=O)nc3cnc4ccc(C#N)cc4c32)CCO1 [Compound 263, N-(1-methyl-2-oxo-1,2-dihydro-3-pyridyl){3-[(2R,4R)-2-methyltetrahydro-2H-pyran-4-yl]-12-cyano-3,5,8-triazatricyclo[7.4.0.0^2,6]trideca-1,4,6,8,10,12-hexaen-4-yl}acetamide] | 0.476 | 8.93
3 | C[C@@H]1C[C@H](n2c(CNC(=O)CC3CC3)nc3cnc4ccc(C#N)cc4c32)CCO1 [Compound 18, N-({8-cyano-1-[(2R,4R)-2-methyloxan-4-yl]-1H-imidazo[4,5-c]quinolin-2-yl}methyl)-2-cyclopropylacetamide] | 2.58 | 182
4 | C[C@@H]1C[C@H](n2c(CC(=O)NC3(C#N)CC3)nc3cnc4ccc(C#N)cc4c32)CCO1 [Compound 282, N-1-cyanocyclopropyl{3-[(2R,4R)-2-methyltetrahydro-2H-pyran-4-yl]-12-cyano-3,5,8-triazatricyclo[7.4.0.0^2,6]trideca-1,4,6,8,10,12-hexaen-4-yl}acetamide] | 0.619 | 188
5 | C[C@@H]1C[C@H](n2c(CC(=O)Nc3cnccc3O)nc3cnc4ccc(C#N)cc4c32)CCO1 [Compound 208, N-(4-hydroxy-3-pyridyl){3-[(2R,4R)-2-methyltetrahydro-2H-pyran-4-yl]-12-cyano-3,5,8-triazatricyclo[7.4.0.0^2,6]trideca-1,4,6,8,10,12-hexaen-4-yl}acetamide] | 0.582 | 4930
6 | Cc1cc(NC(=O)Cc2nc3cnc4ccc(C#N)cc4c3n2[C@@H]2CCO[C@H](C)C2)c(=O)n(C)n1 [Compound 214, N-(2-methyl-6-methyl-3-oxo-2,3-dihydro-4-pyridazinyl){3-[(2R,4R)-2-methyltetrahydro-2H-pyran-4-yl]-12-cyano-3,5,8-triazatricyclo[7.4.0.0^2,6]trideca-1,4,6,8,10,12-hexaen-4-yl}acetamide] | 0.294 | 10.3
7 | C[C@@H]1C[C@H](n2c(CC(=O)Nc3cc(C4CCC4)no3)nc3cnc4ccc(C#N)cc4c32)CCO1 [Compound 340, N-(3-cyclobutyl-5-isoxazolyl){3-[(2R,4R)-2-methyltetrahydro-2H-pyran-4-yl]-12-cyano-3,5,8-triazatricyclo[7.4.0.0^2,6]trideca-1(9),2(6),4,7,10,12-hexaen-4-yl}acetamide] | 1.53 | 15.7
8 | C[C@@H]1C[C@H](n2c(CC(=O)Nc3ncc(C4CC4)cn3)nc3cnc4ccc(C#N)cc4c32)CCO1 [Compound 344, N-(5-cyclopropyl-2-pyrimidinyl){3-[(2R)-2-methyltetrahydro-2H-pyran-4-yl]-12-cyano-3,5,8-triazatricyclo[7.4.0.0^2,6]trideca-1(9),2(6),4,7,10,12-hexaen-4-yl}acetamide] | 0.453 | 4.11
9 | C[C@@H]1C[C@H](n2c(CN3CCC(C(=O)O)CC3)nc3cnc4ccc(C#N)cc4c32)CCO1 [Compound 76, 1-({8-cyano-1-[(2R,4R)-2-methyloxan-4-yl]-1H-imidazo[4,5-c]quinolin-2-yl}methyl)piperidine-4-carboxylic acid] | 109 | 
10 | Cn1cc(-n2c(C3CC(=O)N(CC4CC4)C3)nc3cnc4ccc(C#N)cc4c32)ccc1=O (centres unmarked) [Compound 137, 2-[1-(cyclopropylmethyl)-5-oxopyrrolidin-3-yl]-1-(1-methyl-6-oxo-1,6-dihydropyridin-3-yl)-1H-imidazo[4,5-c]quinoline-8-carbonitrile] | > 1000 | 
11 | C[C@@H]1C[C@H](n2c([C@@H]3CCN(C(=O)c4cccnn4)C3)nc3cnc4ccc(C#N)cc4c32)CCO1 [Compound 129, 1-[(2R,4R)-2-methyloxan-4-yl]-2-[(3R)-1-(pyridazine-3-carbonyl)pyrrolidin-3-yl]-1H-imidazo[4,5-c]quinoline-8-carbonitrile] | 2.47 | 
12 | C[C@@H]1C[C@H](n2c(CC(=O)NCC3CC3)nc3cnc4ccc(C(=O)N(C)C)cc4c32)CCO1 [Compound 144, 2-{[(cyclopropylmethyl)carbamoyl]methyl}-N,N-dimethyl-1-[(2R,4R)-2-methyloxan-4-yl]-1H-imidazo[4,5-c]quinoline-8-carboxamide] | > 1000 | 
13 | C[C@@H]1C[C@H](n2c([C@@H]3CCN(C(=O)c4cnn(C)c4)C3)nc3cnc4ccc(C#N)cc4c32)CCO1 [Compound 130, 2-[(3R)-1-(1-methyl-1H-pyrazole-4-carbonyl)pyrrolidin-3-yl]-1-[(2R,4R)-2-methyloxan-4-yl]-1H-imidazo[4,5-c]quinoline-8-carbonitrile] | 6.71 | 
14 | C[C@@H]1C[C@H](n2c(C3CC(=O)N(Cc4cccnc4)C3)nc3cnc4ccc(C#N)cc4c32)CCO1 (single isomer, unassigned) [Compound 31, 1-[(2R,4R)-2-methyloxan-4-yl]-2-[(3R*)-5-oxo-1-[(pyridin-3-yl)methyl]pyrrolidin-3-yl]-1H-imidazo[4,5-c]quinoline-8-carbonitrile] | 26.4 | 
15 | C[C@@H]1C[C@H](n2c([C@@H]3CCN(S(=O)(=O)c4cnn(C)c4)C3)nc3cnc4ccc(C#N)cc4c32)CCO1 [Compound 128, 2-[(3R)-1-[(1-methyl-1H-pyrazol-4-yl)sulfonyl]pyrrolidin-3-yl]-1-[(2R,4R)-2-methyloxan-4-yl]-1H-imidazo[4,5-c]quinoline-8-carbonitrile] | 10 | 
16 | Cc1cc(-n2c(CC(=O)NCC3CC3)nc3cnc4ccc(C#N)cc4c32)ccn1 [Compound 138, 2-[8-cyano-1-(2-methylpyridin-4-yl)-1H-imidazo[4,5-c]quinolin-2-yl]-N-(cyclopropylmethyl)acetamide] | > 1000 | 
